According to patent publication US9969775B2, “CGRP antagonist peptides” (Ferring B.V., priority 2015, dated 2018):
Where two headings read alike, the source gives them in different places. Numbered stars: 1 amine (or outer) side, 2 acyl side, 3 side chain; on linkers, the order of the positions; unused ones are H or OH. Bridge positions count the residues as written; N and C are the ends. Square brackets hold non-standard residues; d marks the D form. Peptide text beside a SMILES is read from it. * marks the point of attachment. Phe(3-CONH2) = NC(=O)c1cccc(C[C@H](N)C(=O)O)c1; Phe(2-CONH2) = NC(=O)c1ccccc1C[C@H](N)C(=O)O; X5 = O=C([C@H](Cc1ccc(CO)cc1)N[*:1])[*:2]; Picolinoyl(5-F) = O=C(c1ccc(F)cn1)*; Orn(iPr) = CC(C)NCCC[C@H](N)C(=O)O; Benzoyl(4-F) = O=C(c1ccc(F)cc1)*; Oxazole2carbonyl = O=C(c1ncco1)*; 3Pal = N[C@@H](Cc1cccnc1)C(=O)O; Agp = N=C(N)NC[C@H](N)C(=O)O; Picolinoyl = O=C(c1ccccn1)*; ΔPro = O=C(O)[C@@H]1C=CCN1; Dap = NC[C@H](N)C(=O)O; Bz = O=C(c1ccccc1)*

Key:
[1] = molecular target: T1, hCGRP receptor (CALCRL:RAMP1) (Homo sapiens, UniProt O60894+Q16602); test: CGRP receptor antagonist activity measured by cAMP assay (HTRF); type: cell-based; settings: for Emax: read-out: hCGRP-R Efficacy Antag (%) Ave; for IC50: GeneBLAzer CALCRL:RAMP1-CRE-bla Freestyle 293F cells, 30 minutes
T1 construct: host or cells: GeneBLAzer CALCRL:RAMP1-CRE-bla Freestyle 293F

[2] = molecular target: T2, hAM2 receptor (CALCRL:RAMP3) (Homo sapiens, UniProt O60896+Q16602); test: AM2 receptor antagonist activity measured by cAMP assay (HTRF); type: cell-based; settings: for Emax: read-out: hAM2-R Efficacy Antag (%) Ave; for IC50: GeneBLAzer CALCRL:RAMP3-CRE-bla Freestyle 293F cells; for selectivity ratio CGRP/AM2: selectivity ratio for hCGRP over hAM2, calculated from the IC50 values
T2 construct: expressed in transfected cells; host or cells: GeneBLAzer CALCRL:RAMP3-CRE-bla Freestyle 293F
Procedure: Antagonist activity for the adrenomedullin receptor AM2 was determined using the method described in Example 6 above, with the following modifications. Instead of GeneBLAzer® CALCRL:RAMP1-CRE-bla Freestyle™ 293F cells, GeneBLAzer® CALCRL:RAMP3-CRE-bla Freestyle™ 293F cells were used to test activity at hAM2 receptors. The agonist was human adrenomedullin, instead of α-CGRP.
In Table 5, the selectivity ratio for hCGRP over hAM2 is calculated as hCGRP-R IC50/hAM2-R IC50.

[3] = % MPE: percent of the maximal possible effect, agonist human α-CGRP
[4] = agonist human α-CGRP, read-out: hCGRP-R IC50 Ave
[5] = % MPE: percent of the maximal possible effect, agonist human adrenomedullin
[6] = agonist human adrenomedullin, read-out: hAM2-R IC50 Ave

T2 sequence (Q16602 23-461): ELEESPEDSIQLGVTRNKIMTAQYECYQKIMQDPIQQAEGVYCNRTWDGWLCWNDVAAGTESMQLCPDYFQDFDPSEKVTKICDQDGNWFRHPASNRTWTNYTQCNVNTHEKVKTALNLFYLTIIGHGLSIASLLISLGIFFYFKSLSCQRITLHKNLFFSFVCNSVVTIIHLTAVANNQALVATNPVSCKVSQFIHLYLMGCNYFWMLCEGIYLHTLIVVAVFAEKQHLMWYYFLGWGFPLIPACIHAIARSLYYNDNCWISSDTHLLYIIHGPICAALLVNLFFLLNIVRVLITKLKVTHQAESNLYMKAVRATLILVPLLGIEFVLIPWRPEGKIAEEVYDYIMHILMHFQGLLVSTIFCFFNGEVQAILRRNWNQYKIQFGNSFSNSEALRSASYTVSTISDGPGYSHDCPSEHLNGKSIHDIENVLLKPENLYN
T2 sequence (O60896 24-148): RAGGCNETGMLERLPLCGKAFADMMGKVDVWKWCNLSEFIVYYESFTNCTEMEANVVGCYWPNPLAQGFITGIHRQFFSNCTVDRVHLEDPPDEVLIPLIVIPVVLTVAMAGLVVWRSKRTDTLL
T1 sequence (Q16602 23-461): as the sequence (Q16602 23-461) above
T1 sequence (O60894 27-148): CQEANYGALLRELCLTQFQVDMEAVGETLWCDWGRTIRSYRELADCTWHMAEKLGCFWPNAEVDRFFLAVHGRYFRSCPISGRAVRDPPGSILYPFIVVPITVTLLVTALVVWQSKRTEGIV

Structure (SMILES)	Emax [1, 3]	IC50 [1, 4]	Emax [2, 5]	IC50 [2, 6]	selectivity ratio CGRP/AM2 [2]	IC50 ([1]; hCGRP-R IC50 Ave, agonist human α-CGRP)	Emax [1]	IC50 ([2]; hAM2-R IC50 Ave, agonist human adrenomedullin)	Emax [2]
CC(C)NCCC[C@@H]1NC(=O)[C@@H](NC(=O)[C@H](Cc2ccccc2C(N)=O)NC(=O)[C@H](NC(=O)c2ncco2)C(C)C)CSSC[C@@H](C(=O)N[C@@H](Cc2cccnc2)C(N)=O)NC(=O)[C@H](Cc2ccc(CO)cc2)NC(=O)[C@@H]2CCCN2C(=O)CNC(=O)[C@H](C(C)C)NC(=O)[C@H](CC(=O)O)NC1=O [Compound 64, Oxazole-2-carbonyl-D-Val-Phe(2-Cbm)-c(Cys-Orn(iPr)-Asp-Val-Gly-Pro-Phe(4-CH2OH)-Cys)-3Pal-NH2] (Oxazole2carbonyl-[dV][Phe(2-CONH2)]C[Orn(iPr)]DVGP[X5]C[3Pal]-NH2; disulfide 3-10)	101%	0.12 nM	99%	1250 nM	10594	–	–	–	–
CC(C)NCCC[C@@H]1NC(=O)[C@@H](NC(=O)[C@H](Cc2ccc(O)cc2)NC(=O)[C@H](NC(=O)c2ncco2)C(C)C)CSSC[C@@H](C(=O)N[C@@H](Cc2cccnc2)C(N)=O)NC(=O)[C@H](Cc2cccc(C(N)=O)c2)NC(=O)[C@@H]2C=CCN2C(=O)CNC(=O)[C@H](C(C)C)NC(=O)[C@H](CC(=O)O)NC1=O [Compound 67, Oxazole-2-carbonyl-D-Val-Tyr-c(Cys-Orn(iPr)-Asp-Val-Gly-Dhp-Phe(3-Cbm)-Cys)-3Pal-NH2] (Oxazole2carbonyl-[dV]YC[Orn(iPr)]DVG[ΔPro][Phe(3-CONH2)]C[3Pal]-NH2; disulfide 3-10)	101%	0.09 nM	99%	103 nM	1094	–	–	–	–
CC(C)NCCC[C@@H]1NC(=O)[C@@H](NC(=O)[C@H](Cc2ccc(O)cc2)NC(=O)[C@H](NC(=O)c2ccccn2)C(C)C)CSSC[C@@H](C(=O)N[C@@H](Cc2cccnc2)C(N)=O)NC(=O)[C@H](Cc2ccc(CO)cc2)NC(=O)[C@@H]2C=CCN2C(=O)CNC(=O)[C@H](C(C)C)NC(=O)[C@H](CC(=O)O)NC1=O [Compound 69, Picolinoyl-D-Val-Tyr-c(Cys-Orn(iPr)-Asp-Val-Gly-Dhp-Phe(4-CH2OH)-Cys)-3Pal-NH2] (Picolinoyl-[dV]YC[Orn(iPr)]DVG[ΔPro][X5]C[3Pal]-NH2; disulfide 3-10)	100%	0.13 nM	100%	64 nM	497	–	–	–	–
CC(C)NCCC[C@@H]1NC(=O)[C@@H](NC(=O)[C@H](Cc2ccc(O)cc2)NC(=O)[C@H](NC(=O)c2ncco2)C(C)C)CSSC[C@@H](C(=O)N[C@@H](Cc2cccnc2)C(N)=O)NC(=O)[C@H](Cc2ccc(CO)cc2)NC(=O)[C@@H]2C=CCN2C(=O)CNC(=O)[C@H](C(C)C)NC(=O)[C@H](CC(=O)O)NC1=O [Compound 70, Oxazole-2-carbonyl-D-Val-Tyr-c(Cys-Orn(iPr)-Asp-Val-Gly-Dhp-Phe(4-CH2OH)-Cys)-3Pal-NH2] (Oxazole2carbonyl-[dV]YC[Orn(iPr)]DVG[ΔPro][X5]C[3Pal]-NH2; disulfide 3-10)	100%	0.15 nM	100%	107 nM	727	–	–	–	–
CC(C)[C@@H]1NC(=O)[C@H](CC(=O)O)NC(=O)[C@H](CNC(=N)N)NC(=O)[C@@H](NC(=O)[C@H](Cc2ccc(O)cc2)NC(=O)[C@H](NC(=O)c2ccc(F)cc2)C(C)C)CSSC[C@@H](C(=O)N[C@@H](Cc2cccnc2)C(N)=O)NC(=O)[C@H](Cc2ccccc2)NC(=O)[C@@H]2CCCN2C(=O)CNC1=O [Ref. Cpd. 1, Bz(4-F)-D-Val-Tyr-c(Cys-Agp-Asp-Val-Gly-Pro-Phe-Cys)-3Pal-NH2, reference compound] ({Benzoyl(4-F)}-[dV]YC[Agp]DVGPFC[3Pal]-NH2; disulfide 3-10)	100%	–	98%	–	–	–	–	–	–
CC(C)[C@@H]1NC(=O)[C@H](CC(=O)O)NC(=O)[C@H](CN)NC(=O)[C@@H](NC(=O)[C@H](Cc2ccc(O)cc2)NC(=O)[C@H](NC(=O)c2ccccc2)C(C)C)CSSC[C@@H](C(=O)N[C@@H](Cc2cccnc2)C(N)=O)NC(=O)[C@H](Cc2ccccc2)NC(=O)[C@@H]2CCCN2C(=O)CNC1=O [Ref. Cpd. 2, Bz-D-Val-Tyr-c(Cys-Dpr-Asp-Val-Gly-Pro-Phe-Cys)-3Pal-NH2, reference compound] (Bz-[dV]YC[Dap]DVGPFC[3Pal]-NH2; disulfide 3-10)	–	–	–	–	387	0.52 nM	100%	200 nM	100%

Now from value to compound, other results behind:

Emax [1, 3]	IC50 [1, 4]	Emax [2, 5]	IC50 [2, 6]	selectivity ratio CGRP/AM2 [2]	Structure (SMILES)	IC50 ([1]; hCGRP-R IC50 Ave, agonist human α-CGRP)	Emax [1]	IC50 ([2]; hAM2-R IC50 Ave, agonist human adrenomedullin)	Emax [2]
101%	0.06 nM	100%	318 nM	5492	CC(C)NCCC[C@@H]1NC(=O)[C@@H](NC(=O)[C@H](Cc2ccccc2C(N)=O)NC(=O)[C@H](NC(=O)c2ncco2)C(C)C)CSSC[C@@H](C(=O)N[C@@H](Cc2cccnc2)C(N)=O)NC(=O)[C@H](Cc2cccc(C(N)=O)c2)NC(=O)[C@@H]2C=CCN2C(=O)CNC(=O)[C@H](C(C)C)NC(=O)[C@H](CC(=O)O)NC1=O [Compound 65, Oxazole-2-carbonyl-D-Val-Phe(2-Cbm)-c(Cys-Orn(iPr)-Asp-Val-Gly-Dhp-Phe(3-Cbm)-Cys)-3Pal-NH2] (Oxazole2carbonyl-[dV][Phe(2-CONH2)]C[Orn(iPr)]DVG[ΔPro][Phe(3-CONH2)]C[3Pal]-NH2; disulfide 3-10)	–	–	–	–
101%	0.08 nM	100%	84 nM	1027	CC(C)NCCC[C@@H]1NC(=O)[C@@H](NC(=O)[C@H](Cc2ccccc2C(N)=O)NC(=O)[C@H](NC(=O)c2ccc(F)cn2)C(C)C)CSSC[C@@H](C(=O)N[C@@H](Cc2cccnc2)C(N)=O)NC(=O)[C@H](Cc2ccccc2C(N)=O)NC(=O)[C@@H]2C=CCN2C(=O)CNC(=O)[C@H](C(C)C)NC(=O)[C@H](CC(=O)O)NC1=O [Compound 66, Picolinoyl(5-F)-D-Val-Phe(2-Cbm)-c(Cys-Orn(iPr)-Asp-Val-Gly-Dhp-Phe(2-Cbm)-Cys)-3Pal-NH2] ({Picolinoyl(5-F)}-[dV][Phe(2-CONH2)]C[Orn(iPr)]DVG[ΔPro][Phe(2-CONH2)]C[3Pal]-NH2; disulfide 3-10)	–	–	–	–
101%	0.06 nM	100%	18 nM	300	CC(C)NCCC[C@@H]1NC(=O)[C@@H](NC(=O)[C@H](Cc2ccc(O)cc2)NC(=O)[C@H](NC(=O)c2ccc(F)cn2)C(C)C)CSSC[C@@H](C(=O)N[C@@H](Cc2cccnc2)C(N)=O)NC(=O)[C@H](Cc2cccc(C(N)=O)c2)NC(=O)[C@@H]2C=CCN2C(=O)CNC(=O)[C@H](C(C)C)NC(=O)[C@H](CC(=O)O)NC1=O [Compound 68, Picolinoyl(5-F)-D-Val-Tyr-c(Cys-Orn(iPr)-Asp-Val-Gly-Dhp-Phe(3-Cbm)-Cys)-3Pal-NH2] ({Picolinoyl(5-F)}-[dV]YC[Orn(iPr)]DVG[ΔPro][Phe(3-CONH2)]C[3Pal]-NH2; disulfide 3-10)	–	–	–	–
